Source: US8232067B2, “Disrupting FCRN-albumin interactions” (Brigham & Women's Hospital, Inc., priority 2009, dated 2012)

Key:
Balb/c mice = assay: Mortality assay (1); type: in vivo; settings: 12 mg of acetaminophen; mice deficient in FcRn compared to wild-type Balb/c mice
Procedure: Wild-type Balb/c mice and Balb/c mice deficient in FcRn were administered 12 mg of acetaminophen. The dose administered is equivalent to 42 g in a 70 kg human (84 tabs of 500 mg extra strength Tylenol™ (acetaminophen)).

[1] = Serum and bile measurements after tail vein infusion (ELISA); type: in vivo; settings: FcRn deficient mice vs wild-type, 24 hours after infusion
Procedure: Human IgG and rat albumin were administered via the tail vein to wild-type (WT) or FcRn deficient (−/−) mice 24 hours prior to the harvest of serum and bile. For serum and bile measurements, mice were euthanized before blood was removed via the heart and the bile was removed via the gallbladder. Concentration of IgG and albumin were measured by ELISA. Similar results were obtained from bile collected via common bile duct cannulation.
After 24 hours, blood/serum and gallbladder bile were removed as described in Example 1.

| Molecule | mortality (Balb/c mice) | levels of rat albumin in the bile [1] |
| --- | --- | --- |
| CC(=O)Nc1ccc(O)cc1 [acetaminophen] | decreased mortality | – |
| rat albumin: Rat serum albumin administered via the tail vein to mice | – | elevated levels |
